PubChem BioAssay AID330 (DTP/NCI, 2004)
Where “and” joins values, the source holds several entries; their conditions need not be identical. Identical values can stand only once. Inconclusive results and toxic doses are left out. The calls were made as follows: active = survival T/C of 150% or more; inactive = T/C below 125% in these data.

Test system: P388 leukemia ip, CD2F1 mice, survival T/C
Assay: NCI In Vivo Anticancer Drug Screen. Data for tumor model P388 Leukemia (intraperitoneal) in CD2F1 (CDF1) mice
Settings: endpoint: median survival time, higher = longer survival
Summary of the method: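 Mice carrying the transplanted tumor received test compound or vehicle. Survival was recorded in each group, and the value is the treated-group measurement divided by that of the vehicle-treated control group.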

[1] = dose: 100.0 mg/kg/injection, schedule: Q01DX009 (ip), vehicle: saline with Tween-80
[2] = dose: 200.0 mg/kg/injection, schedule: Q01DX009 (ip), vehicle: saline with Tween-80
[3] = dose: 25.0 mg/kg/injection, schedule: Q01DX009 (ip), vehicle: saline with Tween-80
[4] = dose: 50.0 mg/kg/injection, schedule: Q01DX009 (ip), vehicle: saline with Tween-80
[5] = dose: 12.5 mg/kg/injection, schedule: Q01DX009 (ip), vehicle: saline
[6] = dose: 25.0 mg/kg/injection, schedule: Q01DX009 (ip), vehicle: saline

Measured: T/C

Cc1ccc(-c2nc3ccccc3c(=O)n2/N=C/c2ccc(O)cc2)cc1
inactive: dose: 50.0 mg/kg/injection, schedule: Q01DX005 (ip), vehicle: saline with Tween-80 100 % of control | dose: 100.0 mg/kg/injection, schedule: Q01DX005 (ip), vehicle: saline with Tween-80 99 % of control | dose: 200.0 mg/kg/injection, schedule: Q01DX005 (ip), vehicle: saline with Tween-80 89 % of control

CCN(CC)CCSSCCN(CC)CC.[Cl][Mn][Cl]
inactive: dose: 50.0 mg/kg/injection, schedule: Q01DX005 (ip), vehicle: Klucel (hydroxypropylcellulose) (HPC) 114 % of control | dose: 100.0 mg/kg/injection, schedule: Q01DX005 (ip), vehicle: Klucel (hydroxypropylcellulose) (HPC) 117 % of control

O=C1CCC2=C1C(c1ccc(Cl)c(Cl)c1)C1=C(CCC1=O)O2
inactive: dose: 100.0 mg/kg/injection, schedule: Q01DX001 (ip), vehicle: Klucel (hydroxypropylcellulose) (HPC) 98 % of control | dose: 200.0 mg/kg/injection, schedule: Q01DX001 (ip), vehicle: Klucel (hydroxypropylcellulose) (HPC) 100 % of control | dose: 400.0 mg/kg/injection, schedule: Q01DX001 (ip), vehicle: Klucel (hydroxypropylcellulose) (HPC) 102 % of control

Clc1nn2ccnc2c2cccnc12
inactive: dose: 12.5 mg/kg/injection, schedule: Q04DX003 (ip), vehicle: Klucel (hydroxypropylcellulose) (HPC) 100 % of control | dose: 25.0 mg/kg/injection, schedule: Q04DX003 (ip), vehicle: Klucel (hydroxypropylcellulose) (HPC) 103 % of control

CCOC(=O)c1cc(CC)sc1N
inactive: [1] 90 % of control | [2] 90 % of control

Cc1ccc(S(=O)(=O)Cl)cc1Cl
inactive: [3] 101 % of control | [4] 102 % of control | [1] 101 % of control

C[C@@]1(CO)[C@H](O)CC[C@@]2(C)[C@H]1CC[C@H]1C[C@@H]3C[C@@]12CC[C@@]3(O)COC(=O)CN
inactive: dose: 5.0 mg/kg/injection, schedule: Q03HX027 (ip), vehicle: saline + alcohol 113 % of control | dose: 10.0 mg/kg/injection, schedule: Q03HX027 (ip), vehicle: saline + alcohol 118 % of control | [5] 105 % of control and 107 % of control | dose: 15.0 mg/kg/injection, schedule: Q01DX009 (ip), vehicle: saline + alcohol 118 % of control | dose: 25.0 mg/kg/injection, schedule: Q01DX005 (iv), vehicle: saline 105 % of control | [6] 107 % of control and 122 % of control | dose: 30.0 mg/kg/injection, schedule: Q01DX009 (ip), vehicle: saline + alcohol 117 % of control | dose: 40.0 mg/kg/injection, schedule: Q03HX027 (ip), vehicle: saline + alcohol 106 % of control | dose: 50.0 mg/kg/injection, schedule: Q01DX005 (iv), vehicle: saline 99 % of control | dose: 50.0 mg/kg/injection, schedule: Q01DX009 (ip), vehicle: saline 114 % of control | dose: 100.0 mg/kg/injection, schedule: Q01DX005 (iv), vehicle: saline 101 % of control | dose: 100.0 mg/kg/injection, schedule: Q01DX009 (ip), vehicle: saline 122 % of control | dose: 120.0 mg/kg/injection, schedule: Q01DX009 (ip), vehicle: saline + alcohol 95 % of control | dose: 200.0 mg/kg/injection, schedule: Q01DX005 (iv), vehicle: saline 115 % of control

O=C(Nc1cccc2c(OC(=O)C(Cl)Cl)c(N=Nc3ccc(S(=O)(=O)Nc4nccs4)cc3)cc(N=Nc3ccc(S(=O)(=O)Nc4nccs4)cc3)c12)C(Cl)Cl (tested in a mixture with another compound)
inactive: dose: 3.12 mg/kg/injection, schedule: Q01DX009 (ip), vehicle: saline with Tween-80 107 % of control | dose: 6.25 mg/kg/injection, schedule: Q01DX009 (ip), vehicle: saline with Tween-80 104 % of control | dose: 12.5 mg/kg/injection, schedule: Q01DX009 (ip), vehicle: saline with Tween-80 105 % of control and 110 % of control | [3] 105 % of control [middle of 5 runs] | [2] 108 % of control [middle of 8 runs]

O=C1OC2=CC=CC=CC2C12C1C=CC=CC12 (stereo unspecified)
inactive: [4] 100 % of control | [1] 105 % of control | [2] 104 % of control

COc1cc(C(=O)O)cc(C(=O)O)c1
inactive: dose: 6.25 mg/kg/injection, schedule: Q01DX009 (ip), vehicle: saline 99 % of control | [5] 107 % of control | [6] 100 % of control

O=C(CCl)NC(=O)CCl
inactive: [3] 90 % of control
